According to patent US12336982B2 (RODEO THERAPEUTICS CORPORATION, priority 2018, dated 2025):

Biological target: T1, recombinant 15-PGDH (Homo sapiens, UniProt P15428)
T1 sequence (P15428 1-266): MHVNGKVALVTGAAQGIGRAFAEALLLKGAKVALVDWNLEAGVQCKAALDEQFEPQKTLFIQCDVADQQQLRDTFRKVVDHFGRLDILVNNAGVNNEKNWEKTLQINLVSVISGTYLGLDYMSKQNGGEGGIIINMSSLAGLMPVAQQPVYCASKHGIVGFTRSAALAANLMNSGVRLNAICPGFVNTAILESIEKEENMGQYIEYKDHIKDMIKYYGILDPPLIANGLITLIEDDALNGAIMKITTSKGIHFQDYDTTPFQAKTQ
Assay type: biochemical
Conditions: recombinant human 15-PGDH, in vitro; read-out: PDGH Assay-IC50
Source text: The Recombinant 15-PGDH is human unless otherwise specified.

Compound	IC50
Nc1c([S+]([O-])C2CCC2)sc2nc(-c3cnc(NCCO)nc3)cc(-c3ccccc3F)c12 (centres unmarked) [Example 152]	< 2.5 nM
Cn1nccc1-c1cc(-c2cnc3c(c2)nnn3C)nc2sc([S@@+]([O-])C3CCC3)c(N)c12 [Example 327]	≥ 10 nM
COCC[S+]([O-])c1sc2nc(-c3cnc(N4CC(O)C4)nc3)cc(-c3ccccc3)c2c1N (centres unmarked) [Example 300]	2.5 to 10 nM
CNc1ncc(-c2cc(-c3ccnn3C)c3c(N)c([S+]([O-])CCOC)sc3n2)cn1 (centres unmarked) [Example 330]	< 2.5 nM
Nc1c([S@@+]([O-])C2CCC2)sc2nc(-c3cncnc3)cc(-c3ccon3)c12 [Example 310]	≥ 10 nM
COCCC[S+]([O-])c1sc2nc(-c3cnc(N(C)CCO)nc3)cc(C(F)(F)F)c2c1N (centres unmarked) [Example 187]	2.5 to 10 nM
COCC[S+]([O-])c1sc2nc(-c3cnc4nn(C)cc4c3)cc(-c3ccn(C)n3)c2c1N (centres unmarked) [Example 342]	< 2.5 nM
COCC[S+]([O-])c1sc2nc(-c3cncnc3)cc(-c3ncccn3)c2c1N (centres unmarked) [Example 229]	< 2.5 nM
Nc1c([S+]([O-])C2CCC2)sc2nc(-c3cnc(NCCO)nc3)cc(-c3ccon3)c12 (centres unmarked) [Example 351]	< 2.5 nM
COCC[S@@+]([O-])c1sc2nc(-c3cccnc3)nc(-c3ccccc3)c2c1N [Example 55]	< 2.5 nM
Cn1ccc(-c2cc(-c3cccnc3)c3c(N)c([S+]([O-])C4CCC4)sc3n2)cc1=O (centres unmarked) [Example 90]	2.5 to 10 nM
COCC[S+]([O-])c1sc2nc(-c3cnc4nn(C)cc4c3)cc(C3CC3)c2c1N (centres unmarked) [Example 176]	< 2.5 nM
Nc1c([S+]([O-])C2CCC2)sc2nc(-c3cnc4nn(CCO)cc4c3)cc(C3CCC3)c12 (centres unmarked) [Example 348]	2.5 to 10 nM
COCCC[S@+]([O-])c1sc2nc(-c3cccnc3)cc(C(F)(F)F)c2c1N [Example 79]	≥ 10 nM
COCC[S+]([O-])c1sc2nc(-c3cn[nH]c(=O)c3)cc(-c3ccccc3)c2c1N (centres unmarked) [Example 394]	< 2.5 nM
Nc1c([S@+]([O-])C2CCC2)sc2nc(-c3cnc(NCCO)nc3)cc(C3CCC3)c12 [Example 306]	< 2.5 nM
COCCn1ccc(-c2cc(-c3cnc4nn(C)cc4c3)nc3sc([S@+]([O-])CCOC)c(N)c23)n1 [Example 387]	< 2.5 nM
COCC[S+]([O-])c1sc2nc(-c3cnc4nn(C)cc4c3)cc(C(F)(F)F)c2c1N (centres unmarked) [Example 417]	< 2.5 nM
Cn1cc2cc(-c3cc(-c4ccc(OCCO)cc4)c4c(N)c([S+]([O-])C5CCC5)sc4n3)cnc2n1 (centres unmarked) [Example 283]	< 2.5 nM

Compound	IC50
CNc1ncc(-c2cc(-c3ccnn3C)c3c(N)c([S@@+]([O-])CCOC)sc3n2)cn1 [Example 332]	≥ 10 nM
Nc1c([S+]([O-])C2CCC2)sc2nc(-c3cnc(NCCO)nc3)cc(C(F)(F)F)c12 (centres unmarked) [Example 138]	2.5 to 10 nM
Cc1cc(-c2cc(-c3cncnc3)nc3sc([S+]([O-])C4CCC4)c(N)c23)n(C)n1 (centres unmarked) [Example 356]	< 2.5 nM
COCCC[S+]([O-])c1sc2nc(-c3cncnc3)cc(C)c2c1N (centres unmarked) [Example 163]	< 2.5 nM
COCC[S+]([O-])c1sc2nc(-c3cncnc3)cc(-c3ccnn3C)c2c1N (centres unmarked) [Example 175]	2.5 to 10 nM
Nc1ncc(-c2cc(-c3ccc(F)cn3)c3c(N)c([S+]([O-])C4CCC4)sc3n2)cn1 (centres unmarked) [Example 66]	< 2.5 nM
Nc1c([S+]([O-])C2CCC2)sc2nc(-c3cncnc3)cc(-c3ncccn3)c12 (centres unmarked) [Example 98]	< 2.5 nM
Nc1c([S+]([O-])C2CCC2)sc2nc(-c3ccnn3C3CC3)cc(-c3cncnc3)c12 (centres unmarked) [Example 416]	≥ 10 nM
CN(C)C(=O)c1ncc(-c2cc(-c3ccccc3)c3c(N)c([S+]([O-])C4CCC4)sc3n2)cn1 (centres unmarked) [Example 61]	2.5 to 10 nM
NCCOCCNc1ncc(-c2cc(-c3ccccc3)c3c(N)c([S+]([O-])C4CCC4)sc3n2)cn1 (centres unmarked) [Example 156]	< 2.5 nM
COCCC[S@@+]([O-])c1sc2nc(-c3cncnc3)cc(C3CC3)c2c1N [Example 153]	< 2.5 nM
Cn1cc2cc(-c3cc(C(F)(F)F)c4c(N)c([S@+]([O-])C5CCC5)sc4n3)cnc2n1 [Example 423]	< 2.5 nM
COCCC[S+]([O-])c1sc2nc(-c3cnc4nn(C)cc4c3)cc(C3CCC3)c2c1N (centres unmarked) [Example 260]	< 2.5 nM
COCC[S@@+]([O-])c1sc2nc(-c3cncnc3)cc(-c3ncccn3)c2c1N [Example 230]	< 2.5 nM
Nc1c([S+]([O-])C2CCC2)sc2nc(-c3cnc(NCCN4CCS(=O)(=O)CC4)nc3)cc(-c3ccccc3)c12 (centres unmarked) [Example 142]	< 2.5 nM
COCC[S@+]([O-])c1sc2nc(-c3cnc(N)nc3)cc(C3CC3)c2c1N [Example 151]	≥ 10 nM
COCC[S+]([O-])c1sc2nc(-c3cnn(C)c3)cc(C(F)(F)F)c2c1N (centres unmarked) [Example 426]	< 2.5 nM
Cc1ncc(-c2cc(-c3ccccc3)c3c(N)c([S+]([O-])C4CCC4)sc3n2)cn1 (centres unmarked) [Example 99]	< 2.5 nM
Nc1c([S+]([O-])C2CCC2)sc2nc(-c3cncnc3)cc(-c3ccc(C4COC4)nc3)c12 (centres unmarked) [Example 147]	< 2.5 nM

Compound	IC50
Nc1c([S+]([O-])C2CCC2)sc2nc(-c3cncnc3)cc(-c3cnccn3)c12 (centres unmarked) [Example 289]	< 2.5 nM
COCCC[S@+]([O-])c1sc2nc(-c3cnc4c(cnn4C)c3)cc(-c3cccnc3)c2c1N [Example 102]	≥ 10 nM
COCC[S@+]([O-])c1sc2nc(-c3cnc4ncn(C)c4c3)cc(-c3ccccc3)c2c1N [Example 363]	≥ 10 nM
Cn1cc2cc(-c3cc(C(F)(F)F)c4c(N)c([S@@+]([O-])C5CCC5)sc4n3)cnc2n1 [Example 422]	≥ 10 nM
COCCC[S@+]([O-])c1sc2nc(-c3cncnc3)cc(C(F)(F)F)c2c1N [Example 201]	≥ 10 nM
Cn1nccc1-c1cc(-c2cnc(O)nc2)nc2sc([S@+]([O-])C3CCC3)c(N)c12 [Example 224]	< 2.5 nM
COCC[S@+]([O-])c1sc2nc(-c3cnn(C)c3)cc(C3CC3)c2c1N [Example 276]	≥ 10 nM
Nc1c([S+]([O-])C2CCC2)sc2nc(-c3cn[nH]c(=O)c3)cc(C3CCC3)c12 (centres unmarked) [Example 395]	< 2.5 nM
CS(=O)(=O)Nc1ncc(-c2cc(-c3ccccn3)c3c(N)c([S+]([O-])C4CCC4)sc3n2)cn1 (centres unmarked) [Example 108]	< 2.5 nM
CS(=O)(=O)Nc1ncc(-c2cc(-c3ccccc3)c3c(N)c([S@@+]([O-])C4CCC4)sc3n2)cn1 [Example 69]	≥ 10 nM
Nc1c([S+]([O-])C2CCC2)sc2nc(-c3cccnc3)cc(-c3cccnc3)c12 (centres unmarked) [Example 50]	< 2.5 nM
COCC[S@@+]([O-])c1sc2nc(-c3cnn(C)c3)cc(C3CC3)c2c1N [Example 275]	< 2.5 nM
COCC[S+]([O-])c1sc2nc(-c3cnc(N(C)CCO)nc3)cc(C(F)(F)F)c2c1N (centres unmarked) [Example 186]	2.5 to 10 nM
Cn1nccc1-c1cc(-c2cnc(O)nc2)nc2sc([S+]([O-])C3CCC3)c(N)c12 (centres unmarked) [Example 223]	< 2.5 nM
COCC[S@@+]([O-])c1sc2nc(-c3cnc4c(c3)CNC4=O)cc(-c3ccccc3)c2c1N [Example 242]	< 2.5 nM
Cn1cc2cc(-c3cc(C(F)(F)F)c4c(N)c([S+]([O-])C5CCC5)sc4n3)cnc2n1 (centres unmarked) [Example 421]	< 2.5 nM
Nc1c([S+]([O-])C2CCC2)sc2nc(-c3cncnc3)cc(-c3ccon3)c12 (centres unmarked) [Example 308]	< 2.5 nM
COCC[S+]([O-])c1sc2nc(-c3cncnc3)cc(-c3ccon3)c2c1N (centres unmarked) [Example 352]	< 2.5 nM
